Experimental data reported in patent US20080275032A1, “Pyridazinone compounds” (priority 2006, published 2008).

Molecular target: HCV NS5B polymerase (Hepatitis C virus genotype 1b, UniProt P26663)
Assay: biochemical
Conditions: HCV polymerase inhibition, 50 nM enzyme, 2 h at room temperature, FlashPlate [α-33P]GTP incorporation
Protocol: NS5B Polymerase Inhibition Assay (IC50)
Compounds were tested for HCV polymerase inhibition. Assays were performed in a 96-well streptavidin-coated FlashPlate using 50 nM enzyme, 0.5 μCi of [α-^33P]GTP, 0.6 μM GTP, and 50 nM 5′biotinylated oligo (rG13)/poly rC in 20 mM Tris-HCl, pH 7.5, 5 mM MgCl2, 20 mM NaCl, 5 mM dithiothreitol, and 0.1 g/L BSA. The reaction was stopped by aspiration after 2 h at room temperature and the plate was washed several times. After washing, incorporated radioactivity was counted using a Microbeta scintillation counter.

HCV NS5B polymerase, sequence (P26663 2420-3010): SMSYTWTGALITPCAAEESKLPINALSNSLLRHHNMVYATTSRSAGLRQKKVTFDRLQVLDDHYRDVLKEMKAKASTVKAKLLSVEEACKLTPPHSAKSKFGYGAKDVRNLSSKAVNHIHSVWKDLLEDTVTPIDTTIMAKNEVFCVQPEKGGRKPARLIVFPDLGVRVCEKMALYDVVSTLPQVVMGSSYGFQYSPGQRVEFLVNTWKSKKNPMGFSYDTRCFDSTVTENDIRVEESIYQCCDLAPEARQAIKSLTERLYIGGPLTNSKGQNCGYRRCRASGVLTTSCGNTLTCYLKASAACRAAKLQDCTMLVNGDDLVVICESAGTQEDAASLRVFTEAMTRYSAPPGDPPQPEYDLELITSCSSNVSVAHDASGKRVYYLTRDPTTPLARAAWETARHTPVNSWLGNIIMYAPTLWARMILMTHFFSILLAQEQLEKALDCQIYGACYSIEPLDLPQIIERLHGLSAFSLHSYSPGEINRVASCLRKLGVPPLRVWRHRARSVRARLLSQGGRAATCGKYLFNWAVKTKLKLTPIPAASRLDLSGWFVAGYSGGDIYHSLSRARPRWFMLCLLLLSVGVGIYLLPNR

| Structure (SMILES) | IC50 |
| --- | --- |
| CC(C)CCn1nc(-c2cccs2)c(OCOC(=O)C(C)(C)C)c(C2=Nc3ccc(N(C)S(C)(=O)=O)cc3S(=O)(=O)N2)c1=O [2,2-Dimethyl-propionic acid 5-[7-(methanesulfonyl-methyl-amino)-1,1-dioxo-1,2-dihydro-1λ^6-benzo[1,2,4]thiadiazin-3-yl]-1-(3-methyl-butyl)-6-oxo-3-thiophen-2-yl-1,6-dihydro-pyridazin-4-yloxymethyl ester] | 1000 to 10000 nM |
| CC(C)CCn1nc(-c2cccs2)c(O)c(C2=NS(=O)(=O)c3cc(N4CCCS4(=O)=O)ccc3N2)c1=O [4-[7-(1,1-Dioxo-1l6-isothiazolidin-2-yl)-1,1-dioxo-1,2-dihydro-1λ^6-benzo[1,2,4]thiadiazin-3-yl]-5-hydroxy-2-(3-methyl-butyl)-6-thiophen-2-yl-2H-pyridazin-3-one] | 100 to 1000 nM |
| CC(C)CCn1nc(-c2cccs2)c(O)c(C2=Nc3ccc(C4CCCS4(=O)=O)cc3S(=O)(=O)N2)c1=O (stereo not drawn) [4-[7-(1,1-Dioxo-tetrahydro-1l6-thiophen-2-yl)-1,1-dioxo-1,2-dihydro-1λ^6-benzo[1,2,4]thiadiazin-3-yl]-5-hydroxy-2-(3-methyl-butyl)-6-thiophen-2-yl-2H-pyridazin-3-one] | 100 to 1000 nM |
| CC(C)CCn1nc(-c2cccs2)c(O)c(C2=NS(=O)(=O)c3cc(CCS(C)(=O)=O)ccc3N2)c1=O [5-Hydroxy-4-[7-(2-methanesulfonyl-ethyl)-1,1-dioxo-1,2-dihydro-1λ^6-benzo[1,2,4]thiadiazin-3-yl]-2-(3-methyl-butyl)-6-thiophen-2-yl-2H-pyridazin-3-one] | 100 to 1000 nM |
| CC(C)CCn1nc(-c2cccs2)c(O)c(C2=Nc3ccc(/C=C/S(C)(=O)=O)cc3S(=O)(=O)N2)c1=O [5-Hydroxy-4-[7-(2-methanesulfonyl-vinyl)-1,1-dioxo-1,2-dihydro-1λ^6-benzo[1,2,4]thiadiazin-3-yl]-2-(3-methyl-butyl)-6-thiophen-2-yl-2H-pyridazin-3-one] | 100 to 1000 nM |
| O=c1c(C2=Nc3ccc(NS(=O)(=O)C4CC4)cc3S(=O)(=O)N2)c(O)c(-c2cccs2)nn1Cc1ccc(F)c(Cl)c1 [Cyclopropanesulfonic acid {3-[2-(3-chloro-4-fluoro-benzyl)-5-hydroxy-3-oxo-6-thiophen-2-yl-2,3-dihydro-pyridazin-4-yl]-1,1-dioxo-1,2-dihydro-1λ^6-benzo[1,2,4]thiadiazin-7-yl}-amide] | 100 to 1000 nM |
| CC(C)CCn1nc(C(C)(C)C)c(O)c(C2=Nc3ccc(NS(=O)(=O)C4CC4)cc3S(=O)(=O)N2)c1=O [Cyclopropanesulfonic acid {3-[6-tert-butyl-5-hydroxy-2-(3-methyl-butyl)-3-oxo-2,3-dihydro-pyridazin-4-yl]-1,1-dioxo-1,2-dihydro-1λ^6-benzo[1,2,4]thiadiazin-7-yl}-amide] | 1000 to 10000 nM |
| C=CS(=O)(=O)N(C)c1ccc2c(c1)S(=O)(=O)NC(c1c(O)c(-c3cccs3)nn(CCC(C)(C)C)c1=O)=N2 [Ethenesulfonic acid {3-[2-(3,3-dimethyl-butyl)-5-hydroxy-3-oxo-6-thiophen-2-yl-2,3-dihydro-pyridazin-4-yl]-1,1-dioxo-1,2-dihydro-1λ^6-benzo[1,2,4]thiadiazin-7-yl}-methyl-amide] | 1000 to 10000 nM |
| CC(C)CCn1nc(-c2cccs2)c(OC(=O)C(C)C)c(C2=Nc3ccc(N(C)S(C)(=O)=O)cc3S(=O)(=O)N2)c1=O [Isobutyric acid 5-[7-(methanesulfonyl-methyl-amino)-1,1-dioxo-1,2-dihydro-1λ^6-benzo[1,2,4]thiadiazin-3-yl]-1-(3-methyl-butyl)-6-oxo-3-thiophen-2-yl-1,6-dihydro-pyridazin-4-yl ester] | 1000 to 10000 nM |
| CC(C)CCn1nc(-c2cncs2)c(O)c(C2=Nc3ccc(N(CCO)S(C)(=O)=O)cc3S(=O)(=O)N2)c1=O [N-(2-Hydroxy-ethyl)-N-{3-[5-hydroxy-2-(3-methyl-butyl)-3-oxo-6-thiazol-5-yl-2,3-dihydro-pyridazin-4-yl]-1,1-dioxo-1,2-dihydro-1λ^6-benzo[1,2,4]thiadiazin-7-yl}-methanesulfonamide] | 100 to 1000 nM |
| CC(C)CCn1nc(-c2cccs2)c(O)c(C2=Nc3ccc(N(C(=O)OC(C)C)S(C)(=O)=O)cc3S(=O)(=O)N2)c1=O [N-({3-[5-hydroxy-2-(3-methyl-butyl)-3-oxo-6-thiophen-2-yl-2,3-dihydro-pyridazin-4-yl]-1,1-dioxo-1,2-dihydro-1λ^6-benzo[1,2,4]thiadiazin-7-yl}-N-methanesulfonyl)-isopropylcarbamate] | 100 to 1000 nM |
| CC(C)CCn1nc(-c2cccs2)c(O)c(C2=Nc3ccc(N(COCc4ccccc4)S(C)(=O)=O)cc3S(=O)(=O)N2)c1=O [N-Benzyloxymethyl-N-{3-[5-hydroxy-2-(3-methyl-butyl)-3-oxo-6-thiophen-2-yl-2,3-dihydro-pyridazin-4-yl]-1,1-dioxo-1,2-dihydro-1λ^6-benzo[1,2,4]thiadiazin-7-yl}-methanesulfonamide] | 1000 to 10000 nM |

Now from value to molecule:

| IC50 | Structure (SMILES) |
| --- | --- |
| 100 to 1000 nM | CC(C)(C)CCn1nc(-c2cccs2)c(O)c(C2=NS(=O)(=O)c3cc(N(COC(=O)C(C)(C)C)S(C)(=O)=O)ccc3N2)c1=O [2,2-Dimethyl-propionic acid ({3-[2-(3,3-dimethyl-butyl)-5-hydroxy-3-oxo-6-thiophen-2-yl-2,3-dihydro-pyridazin-4-yl]-1,1-dioxo-1,2-dihydro-1λ^6-benzo[1,2,4]thiadiazin-7-yl}-methanesulfonyl-amino)-methylester] |
| 100 to 1000 nM | CC(C)CCn1nc(-c2cccs2)c(O)c(C2=Nc3ccc(N(COC(=O)C(C)(C)C)S(C)(=O)=O)cc3S(=O)(=O)N2)c1=O [2,2-Dimethyl-propionic acid ({3-[5-hydroxy-2-(3-methyl-butyl)-3-oxo-6-thiophen-2-yl-2,3-dihydro-pyridazin-4-yl]-1,1-dioxo-1,2-dihydro-1λ^6-benzo[1,2,4]thiadiazin-7-yl}-methanesulfonyl-amino)-methylester] |
| < 100 nM | CC(C)(C)CCn1nc(-c2cccs2)c(O)c(C2=Nc3ccc(NS(=O)(=O)CCN)cc3S(=O)(=O)N2)c1=O [2-Amino-ethanesulfonic acid {3-[2-(3,3-dimethyl-butyl)-5-hydroxy-3-oxo-6-thiophen-2-yl-2,3-dihydro-pyridazin-4-yl]-1,1-dioxo-1,2-dihydro-1λ^6-benzo[1,2,4]thiadiazin-7-yl}-amide] |
| 100 to 1000 nM | CCN(CC)CCS(=O)(=O)Nc1ccc2c(c1)S(=O)(=O)NC(c1c(O)c(-c3cccs3)nn(CCC(C)(C)C)c1=O)=N2 [2-Diethylamino-ethanesulfonicacid {3-[2-(3,3-dimethyl-butyl)-5-hydroxy-3-oxo-6-thiophen-2-yl-2,3-dihydro-pyridazin-4-yl]-1,1-dioxo-1,4-dihydro-1λ^6-benzo[1,2,4]thiadiazin-7-yl}-amide] |
| < 100 nM | CC(C)CCn1nc(-c2cncs2)c(O)c(C2=Nc3ccc(NS(=O)(=O)C(C)(C)C)cc3S(=O)(=O)N2)c1=O [2-Methyl-propane-2-sulfonic acid{3-[5-hydroxy-2-(3-methyl-butyl)-3-oxo-6-thiazol-5-yl-2,3-dihydro-pyridazin-4-yl]-1,1-dioxo-1,2-dihydro-1λ^6-benzo[1,2,4]thiadiazin-7-yl}-amide] |
| 100 to 1000 nM | CC(C)CCn1nc(-c2cccs2)c(O)c(C2=Nc3ccc(NCCS(N)(=O)=O)cc3S(=O)(=O)N2)c1=O [2-{3-[5-Hydroxy-2-(3-methyl-butyl)-3-oxo-6-thiophen-2-yl-2,3-dihydro-pyridazin-4-yl]-1,1-dioxo-1,2-dihydro-1λ^6-benzo[1,2,4]thiadiazin-7-ylamino}-ethanesulfonic acid amide] |
| < 100 nM | O=c1c(C2=Nc3ccc(NS(=O)(=O)C4CC4)cc3S(=O)(=O)N2)c(O)c(-c2cccs2)nn1CCC1CC1 [Cyclopropanesulfonic acid {3-[2-(2-cyclopropyl-ethyl)-5-hydroxy-3-oxo-6-thiophen-2-yl-2,3-dihydro-pyridazin-4-yl]-1,1-dioxo-1,2-dihydro-1λ^6-benzo[1,2,4]thiadiazin-7-yl}-amide] |
| < 100 nM | CC(C)CCn1nc(-c2cncs2)c(O)c(C2=Nc3ccc(NS(=O)(=O)C4CC4)cc3S(=O)(=O)N2)c1=O [Cyclopropanesulfonic acid {3-[5-hydroxy-2-(3-methyl-butyl)-3-oxo-6-thiazol-5-yl-2,3-dihydro-pyridazin-4-yl]-1,1-dioxo-1,2-dihydro-1λ^6-benzo[1,2,4]thiadiazin-7-yl}-amide] |
| < 100 nM | CCS(=O)(=O)Nc1ccc2c(c1)S(=O)(=O)NC(c1c(O)c(-c3cncs3)nn(CCC(C)C)c1=O)=N2 [Ethanesulfonic acid {3-[5-hydroxy-2-(3-methyl-butyl)-3-oxo-6-thiazol-5-yl-2,3-dihydro-pyridazin-4-yl]-1,1-dioxo-1,2-dihydro-1λ^6-benzo[1,2,4]thiadiazin-7-yl}-amide] |
| < 100 nM | CCS(=O)(=O)Nc1ccc2c(c1)S(=O)(=O)NC(c1c(O)c(-c3cccs3)nn(CCC(C)C)c1=O)=N2 [Ethanesulfonic acid {3-[5-hydroxy-2-(3-methyl-butyl)-3-oxo-6-thiophen-2-yl-2,3-dihydro-pyridazin-4-yl]-1,1-dioxo-1,2-dihydro-1λ^6-benzo[1,2,4]thiadiazin-7-yl}-amide] |
| < 100 nM | CS(=O)(=O)Nc1ccc2c(c1)S(=O)(=O)N=C(c1c(O)c(-c3cccs3)nn(Cc3ccccc3)c1=O)N2 [N-[3-(2-Benzyl-5-hydroxy-3-oxo-6-thiophen-2-yl-2,3-dihydro-pyridazin-4-yl)-1,1-dioxo-1,2-dihydro-1λ^6-benzo[1,2,4]thiadiazin-7-yl]-methanesulfonamide] |
| < 100 nM | O=C(NS(=O)(=O)Nc1ccc2c(c1)S(=O)(=O)NC(c1c(O)c(-c3cncs3)nn(CC3CCC3)c1=O)=N2)OCc1ccccc1 [N-[3-(2-Cyclobutylmethyl-5-hydroxy-3-oxo-6-thiazol-5-yl-2,3-dihydro-pyridazin-4-yl)-1,1-dioxo-1,2-dihydro-1λ^6-benzo[1,2,4]thiadiazin-7-yl]-3-carbamic-acid-benzyl-ester-sulfamide] |
